Tested on: 935938-334-R-J1-PDC spheroids with HUVEC/MSC, viability
Assay: Anticancer human tumor 935938-334-R-J1-PDC patient-derived small intestine adenocarcinoma cell line growth inhibition [PI3K]
Settings: for viability, T/C: stronger effect = lower value
Method in brief: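 We assembled tumor spheroids that included a stromal compartment of HUVEC and MSCs, then exposed them to targeted agents alone and together with PI3K pathway inhibitors. Concentration series descended by half-log from clinically achievable Cmax levels. Viability served as the endpoint.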

[1] = curve of first compound, second compound 0.00316 µM
[2] = curve of first compound, second compound 0.01 µM
[3] = curve of first compound, second compound 0.0316 µM
[4] = curve of first compound, second compound 0.1 µM
[5] = curve of first compound, second compound 0.316 µM
[6] = curve of first compound, second compound 1 µM
[7] = second compound 0.00316 µM, first compound 0.0316 µM
[8] = second compound 0.00316 µM, first compound 0.1 µM
[9] = second compound 0.00316 µM, first compound 0.316 µM
[10] = second compound 0.00316 µM, first compound 1 µM
[11] = second compound 0.00316 µM, first compound 3.16 µM
[12] = second compound 0.00316 µM, first compound 10 µM
[13] = second compound 0.01 µM, first compound 0.0316 µM
[14] = second compound 0.01 µM, first compound 0.1 µM
[15] = second compound 0.01 µM, first compound 0.316 µM
[16] = second compound 0.01 µM, first compound 1 µM
[17] = second compound 0.01 µM, first compound 3.16 µM
[18] = second compound 0.01 µM, first compound 10 µM
[19] = second compound 0.0316 µM, first compound 0.0316 µM
[20] = second compound 0.0316 µM, first compound 0.1 µM
[21] = second compound 0.0316 µM, first compound 0.316 µM
[22] = second compound 0.0316 µM, first compound 1 µM
[23] = second compound 0.0316 µM, first compound 3.16 µM
[24] = second compound 0.0316 µM, first compound 10 µM
[25] = second compound 0.1 µM, first compound 0.0316 µM
[26] = second compound 0.1 µM, first compound 0.1 µM
[27] = second compound 0.1 µM, first compound 0.316 µM
[28] = second compound 0.1 µM, first compound 1 µM
[29] = second compound 0.1 µM, first compound 3.16 µM
[30] = second compound 0.1 µM, first compound 10 µM
[31] = second compound 0.316 µM, first compound 0.0316 µM
[32] = second compound 0.316 µM, first compound 0.1 µM
[33] = second compound 0.316 µM, first compound 0.316 µM
[34] = second compound 0.316 µM, first compound 1 µM
[35] = second compound 0.316 µM, first compound 3.16 µM
[36] = second compound 0.316 µM, first compound 10 µM
[37] = second compound 1 µM, first compound 0.0316 µM
[38] = second compound 1 µM, first compound 0.1 µM
[39] = second compound 1 µM, first compound 0.316 µM
[40] = second compound 1 µM, first compound 1 µM
[41] = second compound 1 µM, first compound 3.16 µM
[42] = second compound 1 µM, first compound 10 µM
[43] = curve of first compound, second compound 3.16 µM
[44] = curve of first compound, second compound 10 µM
[45] = second compound 0.0316 µM, first compound 0.000316 µM
[46] = second compound 0.0316 µM, first compound 0.001 µM
[47] = second compound 0.0316 µM, first compound 0.00316 µM
[48] = second compound 0.0316 µM, first compound 0.01 µM
[49] = second compound 0.1 µM, first compound 0.000316 µM
[50] = second compound 0.1 µM, first compound 0.001 µM
[51] = second compound 0.1 µM, first compound 0.00316 µM
[52] = second compound 0.1 µM, first compound 0.01 µM
[53] = second compound 0.316 µM, first compound 0.000316 µM
[54] = second compound 0.316 µM, first compound 0.001 µM
[55] = second compound 0.316 µM, first compound 0.00316 µM
[56] = second compound 0.316 µM, first compound 0.01 µM
[57] = second compound 1 µM, first compound 0.000316 µM
[58] = second compound 1 µM, first compound 0.001 µM
[59] = second compound 1 µM, first compound 0.00316 µM
[60] = second compound 1 µM, first compound 0.01 µM
[61] = second compound 3.16 µM, first compound 0.000316 µM
[62] = second compound 3.16 µM, first compound 0.001 µM
[63] = second compound 3.16 µM, first compound 0.00316 µM
[64] = second compound 3.16 µM, first compound 0.01 µM
[65] = second compound 3.16 µM, first compound 0.0316 µM
[66] = second compound 3.16 µM, first compound 0.1 µM
[67] = second compound 10 µM, first compound 0.000316 µM
[68] = second compound 10 µM, first compound 0.001 µM
[69] = second compound 10 µM, first compound 0.00316 µM
[70] = second compound 10 µM, first compound 0.01 µM
[71] = second compound 10 µM, first compound 0.0316 µM
[72] = second compound 10 µM, first compound 0.1 µM
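Note: compound exposure lasted seven days before viability was read.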
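Throughout, for viability, T/C: percent of vehicle DMSO treated spheroid viability so 100% = untreated.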

## CC(C)NCC(C(=O)N1CCN(c2ncnc3c2C(C)CC3O)CC1)c1ccc(Cl)cc1 (stereo unspecified) + COc1c(OCCCN2CCOCC2)ccc2c3n(c(=NC(=O)c4cnc(N)nc4)nc12)CCN3
[1]
  IC50: 5660 nM
[2]
  IC50: 2730 nM
[3]
  IC50: 1310 nM
[4]
  IC50: < 31.6 nM
[5]
  IC50: < 31.6 nM
[6]
  IC50: < 31.6 nM
[7]
  viability, T/C: 94.5%
[8]
  viability, T/C: 99%
[9]
  viability, T/C: 84.8%
[10]
  viability, T/C: 65.5%
[11]
  viability, T/C: 62.5%
[12]
  viability, T/C: 41.5%
[13]
  viability, T/C: 85.5%
[14]
  viability, T/C: 106%
[15]
  viability, T/C: 82%
[16]
  viability, T/C: 61.1%
[17]
  viability, T/C: 54.5%
[18]
  viability, T/C: 39.8%
[19]
  viability, T/C: 84.2%
[20]
  viability, T/C: 67.4%
[21]
  viability, T/C: 68%
[22]
  viability, T/C: 48.5%
[23]
  viability, T/C: 45.5%
[24]
  viability, T/C: 29.5%
[25]
  viability, T/C: 48.3%
[26]
  viability, T/C: 49.4%
[27]
  viability, T/C: 39.3%
[28]
  viability, T/C: 44.3%
[29]
  viability, T/C: 40.8%
[30]
  viability, T/C: 30.4%
[31]
  viability, T/C: 30.6%
[32]
  viability, T/C: 40.4%
[33]
  viability, T/C: 29.8%
[34]
  viability, T/C: 33.7%
[35]
  viability, T/C: 26.7%
[36]
  viability, T/C: 30.3%
[37]
  viability, T/C: 36.6%
[38]
  viability, T/C: 34.7%
[39]
  viability, T/C: 37%
[40]
  viability, T/C: 34.2%
[41]
  viability, T/C: 30.1%
[42]
  viability, T/C: 33.2%

## CC(=O)c1c(C)c2cnc(Nc3ccc(N4CCNCC4)cn3)nc2n(C2CCCC2)c1=O + Cc1nc(NC(=O)N2CCCC2C(N)=O)sc1-c1ccnc(C(C)(C)C(F)(F)F)c1
[3]
  IC50: > 100 nM
[4]
  IC50: > 100 nM
[5]
  IC50: 58.2 nM
[6]
  IC50: 27.8 nM
[43]
  IC50: 2.55 nM
[44]
  IC50: < 0.316 nM
[45]
  viability, T/C: 104%
[46]
  viability, T/C: 95.7%
[47]
  viability, T/C: 112%
[48]
  viability, T/C: 102%
[19]
  viability, T/C: 74.8%
[20]
  viability, T/C: 55.9%
[49]
  viability, T/C: 94.4%
[50]
  viability, T/C: 96.5%
[51]
  viability, T/C: 89.4%
[52]
  viability, T/C: 78.5%
[25]
  viability, T/C: 85.7%
[26]
  viability, T/C: 52.8%
[53]
  viability, T/C: 87.8%
[54]
  viability, T/C: 75%
[55]
  viability, T/C: 63.4%
[56]
  viability, T/C: 80.7%
[31]
  viability, T/C: 51.6%
[32]
  viability, T/C: 44.1%
[57]
  viability, T/C: 77%
[58]
  viability, T/C: 49.8%
[59]
  viability, T/C: 63.3%
[60]
  viability, T/C: 76.4%
[37]
  viability, T/C: 47.9%
[38]
  viability, T/C: 31.1%
[61]
  viability, T/C: 67.2%
[62]
  viability, T/C: 61.8%
[63]
  viability, T/C: 43.7%
[64]
  viability, T/C: 42%
[65]
  viability, T/C: 33.1%
[66]
  viability, T/C: 29.9%
[67]
  viability, T/C: 39.5%
[68]
  viability, T/C: 40%
[69]
  viability, T/C: 35.3%
[70]
  viability, T/C: 37.2%
[71]
  viability, T/C: 33.3%
[72]
  viability, T/C: 26.5%

## CC(Nc1ncnc2nc[nH]c12)c1cc2cccc(Cl)c2c(=O)n1-c1ccccc1 (stereo unspecified)
Compound 0.0316 µM
  viability, T/C: 99% [middle of 8 runs]
Compound 10 µM
  viability, T/C: 80.4% [middle of 8 runs]
Compound alone, run of 04/25/2023
  IC50: > 10000 nM

## CC(C)n1nc(-c2ccc3oc(N)nc3c2)c2c(N)ncnc21 + Cc1nc(NC(=O)N2CCCC2C(N)=O)sc1-c1ccnc(C(C)(C)C(F)(F)F)c1
[3]
  IC50: > 100 nM
[4]
  IC50: > 100 nM
[5]
  IC50: 17 nM
[6]
  IC50: 7.19 nM
[43]
  IC50: 3.77 nM
[44]
  IC50: < 0.316 nM
[45]
  viability, T/C: 91.5%
[46]
  viability, T/C: 91%
[47]
  viability, T/C: 81.3%
[48]
  viability, T/C: 93.6%
[19]
  viability, T/C: 64.9%
[20]
  viability, T/C: 51.6%
[49]
  viability, T/C: 89%
[50]
  viability, T/C: 82.1%
[51]
  viability, T/C: 75.9%
[52]
  viability, T/C: 92%
[25]
  viability, T/C: 68.7%
[26]
  viability, T/C: 54.5%
[53]
  viability, T/C: 83.4%
[54]
  viability, T/C: 72.2%
[55]
  viability, T/C: 92.8%
[56]
  viability, T/C: 54.1%
[31]
  viability, T/C: 54.9%
[32]
  viability, T/C: 35.5%
[57]
  viability, T/C: 66.5%
[58]
  viability, T/C: 74.3%
[59]
  viability, T/C: 66.8%
[60]
  viability, T/C: 42.5%
[37]
  viability, T/C: 37.6%
[38]
  viability, T/C: 27.1%
[61]
  viability, T/C: 51%
[62]
  viability, T/C: 59.8%
[63]
  viability, T/C: 47.8%
[64]
  viability, T/C: 43%
[65]
  viability, T/C: 27.3%
[66]
  viability, T/C: 28.9%
[67]
  viability, T/C: 35.5%
[68]
  viability, T/C: 37.7%
[69]
  viability, T/C: 61.5%
[70]
  viability, T/C: 35%
[71]
  viability, T/C: 37.3%
[72]
  viability, T/C: 30.1%

## CC1(C)CCC(CN2CCN(c3ccc(C(=O)NS(=O)(=O)c4ccc(NCC5CCOCC5)c([N+](=O)[O-])c4)c(Oc4cnc5[nH]ccc5c4)c3)CC2)=C(c2ccc(Cl)cc2)C1 + COc1c(OCCCN2CCOCC2)ccc2c3n(c(=NC(=O)c4cnc(N)nc4)nc12)CCN3
[1]
  IC50: > 10000 nM
[2]
  IC50: > 10000 nM
[3]
  IC50: > 10000 nM
[4]
  IC50: 10000 nM
[5]
  IC50: < 31.6 nM
[6]
  IC50: < 31.6 nM
[7]
  viability, T/C: 98.6%
[8]
  viability, T/C: 99.3%
[9]
  viability, T/C: 92.7%
[10]
  viability, T/C: 110%
[11]
  viability, T/C: 84.8%
[12]
  viability, T/C: 93.1%
[13]
  viability, T/C: 108%
[14]
  viability, T/C: 85.6%
[15]
  viability, T/C: 83.7%
[16]
  viability, T/C: 66.8%
[17]
  viability, T/C: 82.4%
[18]
  viability, T/C: 84.8%
[19]
  viability, T/C: 67.7%
[20]
  viability, T/C: 68.6%
[21]
  viability, T/C: 71.1%
[22]
  viability, T/C: 68.5%
[23]
  viability, T/C: 69.5%
[24]
  viability, T/C: 74%
[25]
  viability, T/C: 66.5%
[26]
  viability, T/C: 44.7%
[27]
  viability, T/C: 56.8%
[28]
  viability, T/C: 52.2%
[29]
  viability, T/C: 52.5%
[30]
  viability, T/C: 47.3%
[31]
  viability, T/C: 27.1%
[32]
  viability, T/C: 36.2%
[33]
  viability, T/C: 30%
[34]
  viability, T/C: 33.2%
[35]
  viability, T/C: 33.6%
[36]
  viability, T/C: 40.1%
[37]
  viability, T/C: 34.6%
[38]
  viability, T/C: 39.5%
[39]
  viability, T/C: 38.9%
[40]
  viability, T/C: 29.3%
[41]
  viability, T/C: 34.9%
[42]
  viability, T/C: 32.6%

From PubChem BioAssay AID1963966 (Molecular Pharmacology Branch, DTP, NCI, 2024)
